Values of other authors as cited in article PMC12018205, “Mutant protein chemical rescue: From mechanisms to therapeutics” (The Journal of Biological Chemistry, 2025).

Key:
[1] = test system: Y51A-mutant xylose reductase; settings: NAD+-dependent oxidation of xylitol
[2] = test system: S-mandelate dehydrogenase R277G mutant; parameters: method as in PMID 10955993
[3] = test system: rat pancreatic carboxypeptidase A R127A mutant; parameters: method as in PMID 1304353; settings: up
galactocerebrosidase = test system: galactocerebrosidase; parameters: method as in PMID 24913062; settings: Krabbe disease
[4] = test system: Lys80-mutant leucine dehydrogenase; settings: One M; from 1.5% unrescued
[5] = test system: ornithine transcarbamylase R57G variant
[6] = test system: clostridial GDH D156S mutant
[7] = test system: R359C GS (glutamine synthetase); parameters: method as in PMID 7912599; settings: for rescue of kcat / reactivation of R359C mutant: covalent modification of Cys
mutant forms of CFTR = test system: mutant forms of CFTR; parameters: method as in PMID 19846789; settings: some mutant forms; epithelial cell membranes
I278T CBS = test system: I278T CBS; parameters: method as in PMID 17540596
tripeptidyl peptidase I = test system: tripeptidyl peptidase I; parameters: method as in PMID 20340139; settings: one form
[8] = test system: rationally designed proteins and temperature-sensitive library mutants in yeast
mutant p53 tumors = test system: mutant p53 tumors; parameters: method as in PMID 10617466; settings: mouse xenograft studies
[9] = test system: E361G-mutant β-galactosidase; settings: E361G mutant rescued
[10] = test system: SpyCas9 H840A and H840G mutants; parameters: method as in PMID 33428390; settings: 100 mM; both H840 mutants
[11] = test system: Csk, Src, and Abl kinases Arg to Ala mutants
subtilisin H64A mutant = test system: subtilisin H64A mutant; parameters: method as in PMID 2059622; settings: much lesser degree than His-containing substrate
[12] = test system: cytomegalovirus protease assemblin His to Gly mutant; parameters: method as in PMID 16036911; settings: in vitro and in mammalian cells
H122G NDPK = test system: H122G NDPK; parameters: method as in PMID 10200157
[13] = test system: R388A v-Src in SYF MEF cells; settings: live cells, FRET-based cell sensor
[14] = test system: β-class carbonic anhydrase Asp34 to Ala mutant; parameters: method as in PMID 12107142; settings: without affecting kcat/KM
[15] = test system: N370S-mutant β-glucosidase; parameters: method as in PMID 12434014
[16] = test system: mutant PAH (phenylalanine hydroxylase); settings: PAH stabilization and enhancement of enzyme kinetics
[17] = test system: AS B (asparagine synthetase B) Arg325 to Ala mutant; parameters: method as in PMID 9139684; settings: 50 mM rescue agent
[18] = test system: Paenibacillus sp. dextranase glutamate mutants; settings: high concentration of 2.4 M
Q227L Gα (Gsα subunit) = settings: substrate-assisted catalysis
Y319A TbtD = settings: 10 mM
[19] = test system: Y14G-mutant ketosteroid isomerase; settings: 2 mM
[20] = test system: aspartate aminotransferase K258C mutant; parameters: method as in PMID 1907854; settings: aminoethylation of K258C
[21] = test system: mutant α-galactosidase A (GalA); parameters: method as in PMID 9883849; settings: prevents aggregation in the endoplasmic reticulum
[22] = test system: β-glycosidase (β-gly) W33G mutant; parameters: method as in PMID 22655749
[23] = test system: trehalose phosphorylase R507A mutant; parameters: method as in PMID 18205830; settings: up
[24] = test system: rat pancreatic carboxypeptidase A R127M mutant; parameters: method as in PMID 1304353
[25] = test system: pyruvate kinase C9S/C268S/K221C triple mutant; settings: aminoethylation of K221C
HDAC8 = test system: HDAC8; parameters: method as in PMID 26463496; settings: multiple forms

Molecule: Br [bromide ion]
- rescue of Y51A-mutant xylose reductase [1]: partially rescued

Molecule: CN=C(N)N [methylguanidine]
- rescued KM, within fold of the WT value [2]: ≤ 30 fold
- rescued kcat, within fold of the WT value [2]: ≤ 1.5 fold
- EC50 ([2]; read-out: half-maximal rescue (Kr)): ~10 mM
- increase in kcat of the R127A mutant [3]: up to 100 fold

Molecule: CN1[C@@H](CC(=O)c2ccccc2)CCC[C@H]1C[C@H](O)c1ccccc1 [α-lobeline]
- rescue of galactocerebrosidase (galactocerebrosidase): rescued

Molecule: N [ammonia]
- deamination activity restored, % of WT leucine dehydrogenase [4]: 20%

Molecule: c1ccncc1 [pyridine]
- restoration of R57G variant activity [5]: not

Molecule: CCNC(=N)N [ethylguanidine]
- increase in kcat of the R127A mutant [3]: up to 100 fold

Molecule: F [Fluoride, fluoride]
- maximum extent of rescue, forward reaction, increase over baseline [6]: 1000 fold
- maximum extent of rescue, reverse reaction, increase over baseline [6]: 4 fold
- EC50 ([6]; read-out: Kr, reverse reaction, reductive amination): 40 mM

Molecule: NCCCBr [3-bromopropylamine]
- rescue of kcat / reactivation of R359C mutant [7]: could not reactivate

Molecule: CC(C)(C)c1cc(C(C)(C)C)c(NC(=O)c2c[nH]c3ccccc3c2=O)cc1O [Ivacaftor]
- effect on mutant CFTR (mutant forms of CFTR): enhances their presence and transport function

Molecule: C[S+](C)[O-] [dimethyl sulfoxide]
- rescue of I278T CBS by chemical chaperones (I278T CBS): partially rescued
- rescue of tripeptidyl peptidase I (tripeptidyl peptidase I): partially rescued
- extent of rescue in vivo [8]: weak

Molecule: COc1ccc(/C=C/c2nc(NCCCN(C)C)c3ccccc3n2)cc1 [CP-31398]
- effect on tumors (mutant p53 tumors): shrunk tumors

Molecule: N=C(N)NCCC[C@H](N)C(=O)O [arginine]
- restoration of R57G variant activity [5]: not

Molecule: [N-]=[N+]=[N-] [azide]
- enhancement in transglycosylation activity over the WT enzyme [9]: 177 fold

Molecule: c1c[nH]cn1 [imidazole]
- rescue of in vitro nuclease activity [10]: substantially rescued
- rescue of activity of Arg to Ala mutants [11]: > 100 fold
- EC50 ([11]; read-out: EC50 of tyrosine kinase rescue): ~5 mM
- restoration of catalytic activity (subtilisin H64A mutant): partially restored
- complementation of lost proteolytic activity [12]: complemented efficiently
- rescue of kcat/KM,ATP (H122G NDPK; ATP): 40 fold
- rescued kcat/KM,ATP, fold below that of the WT enzyme (H122G NDPK; ATP): 50 fold
- kcat/KM,ATPγS, fold higher than the unrescued condition (H122G NDPK; ATPγS): 100 fold
- rescued kcat/KM,ATPγS, fold below WT (H122G NDPK; ATPγS): 2 fold
- time to observed tyrosine phosphorylation after treatment [13]: ≤ 1 min
- pKa: approximately 7
- rescue of kcat defect [14]: rescued this defect in kcat

Molecule: CCCCCCCCCN1C[C@H](O)[C@@H](O)[C@H](O)[C@H]1CO [N-(n-nonyl)deoxynojirimycin]
- effect on mutant β-glucosidase stability and trafficking to the lysosome [15]: shows promise in promoting the stability

Molecule: CN(C)C(=N)N [1,1-dimethylguanidine]
- effectiveness as rescue agent [2]: not effective

Molecule: C[C@H](O)[C@H](O)[C@H]1CNc2nc(N)[nH]c(=O)c2N1 [tetrahydrobiopterin]
- rescue of mutant PAH by excess cofactor [16]: rescue mutant forms of PAH

Molecule: Cl.N=C(N)N [Guanidinium hydrochloride]
- specific activity restored, % of the WT enzyme [17]: ~15%
- rescued kcat, within % of the WT enzyme ([5]; R57G variant): ≤ 10%
- stimulation of kcat ([5]; R57G variant): 2000 fold
- EC50 ([5]; R57G variant, read-out: half-maximal rescue concentration (Kr)): 22 mM

Molecule: O=CO [formate]
- enhancement in transglycosylation activity over the WT enzyme [9]: 177 fold
- rescue of glutamate mutants [18]: effective

Molecule: 3,4-diamino-benzophenone phosphonoamidate-GTP [DABP-GTP]
- GTPase activity rescue with GTP analog as substrate (Q227L Gα (Gsα subunit)): nearly WT activity

Molecule: N=C(N)CSSCC(=N)N [DTBA, 2,2′-dithiobis(acetamidine)]
- rescue of kcat / reactivation of R359C mutant [7]: hardly affected

Molecule: Oc1ccccc1 [phenol]
- effect on pyridine product formation (Y319A TbtD): substantial increase in pyridine formation
- rescue of activity over baseline [19]: about 10 fold
- rescued enzyme activity, % of WT activity [19]: below 1%

Molecule: NCCBr [2-bromoethylamine]
- enzymatic activity restored, % of WT aspartate aminotransferase [20]: 7%

Molecule: OC[C@H]1NC[C@H](O)[C@@H](O)[C@H]1O [DGJ, deoxygalactonojirimycin]
- effect of binding on mutant GalA [21]: stabilize mutant GalA

Molecule: C[N+](C)(C)[O-] [trimethylamine-N-oxide]
- extent of rescue in vivo [8]: weak

Molecule: O=c1c(-c2ccc(O)c(O)c2)coc2cc(O)ccc12 [3′,4′,7-trihydroxyisoflavone]
- rescue of galactocerebrosidase (galactocerebrosidase): rescued

Molecule: c1ccc2[nH]ccc2c1 [indole]
- rescue of β-gly [22]: fully rescued

Molecule: N=C(N)N [Guanidine]
- enhancement of enzymatic activity [23]: up to 50 fold
- increase in kcat of the R127A mutant [3]: up to 100 fold
- rescue of the R127M mutant [24]: rescued

Molecule: OC[C@@H](O)[C@@H](O)[C@H](O)[C@@H](O)CO [sorbitol]
- rescue of I278T CBS by chemical chaperones (I278T CBS): partially rescued

Molecule: Cn1ccnc1 [1-methylimidazole]
- effectiveness as rescue agent [2]: not effective

Molecule: O=C(NCCI)C(F)(F)F [N-[2-iodoethyl]trifluoroacetamide]
- activity rescued, % of the WT pyruvate kinase activity [25]: 4.5%

Molecule: CC(=O)O [acetate]
- enhancement of D189S trypsin activity (D189S trypsin): could enhance the activity
- rescue for substrates bearing Arg at P1 versus Lys (D189S trypsin; D189S trypsin): 10 fold

Molecule: O=C(NC(=S)Nc1ccccc1)c1ccccc1 [N-(phenylcarbamothioyl)-benzamide]
- rescue of HDAC8 mutants (HDAC8): partially or fully rescued

Molecule: N=C(N)N [guanidinium]
- extent of rescue in vivo [8]: weak

Molecule: N=C(N)CCl [2-CA, 2-chloroacetamidine]
- kcat restored, % of the value of the WT enzyme ([7]; R359C GS after covalent modification of Cys): 70%
